Assay results reported in ChEMBL document CHEMBL1201861, “Genomics of Drug Sensitity in Cancer screening data, Wellcome Trust Sanger Institute”.

Tests used:
Experiment in all cases: cells
[1] = tested on: COR-L88; type: functional, cell-based; details: Homo sapiens;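 also: growth inhibition of COR-L88 cells, read out with a cell viability assay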
Description: SANGER: Inhibition of human COR-L88 cell growth in a cell viability assay.

[2] = tested on: DU-145; type: functional, cell-based, Homo sapiens; details: Homo sapiens, DU-145
Description: SANGER: Inhibition of human DU-145 cell growth in a cell viability assay.

[3] = tested on: G-402; type: functional, cell-based, Homo sapiens; details: Homo sapiens, G-402
Description: SANGER: Inhibition of human G-402 cell growth in a cell viability assay.

[4] = tested on: GAMG; type: functional, cell-based, Homo sapiens; details: Homo sapiens, GAMG;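 also: cell growth inhibition measured by a viability assay in the GAMG human cell line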
Description: SANGER: Inhibition of human GAMG cell growth in a cell viability assay.

[5] = tested on: HCC1395; type: functional, cell-based, Homo sapiens; details: Homo sapiens, HCC1395;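 also: growth inhibition of HCC1395 cells, read out by a cell viability assay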
Description: SANGER: Inhibition of human HCC1395 cell growth in a cell viability assay.

[6] = tested on: HCC2218; type: functional, cell-based; details: Homo sapiens;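 also: cell viability assay read-out, with IC50 given as the concentration that inhibits growth of the cell line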
Description: SANGER: Inhibition of human HCC2218 cell growth in a cell viability assay.

[7] = tested on: HCE-T; type: functional, cell-based, Homo sapiens; details: Homo sapiens, HCE-T;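 also: cell viability assay read-out, reporting inhibition of HCE-T cell growth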
Description: SANGER: Inhibition of human HCE-T cell growth in a cell viability assay.

[8] = tested on: HD-MY-Z; type: functional, cell-based, Homo sapiens; details: Homo sapiens, HD-MY-Z;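 also: growth inhibition of HD-MY-Z cells, read out with a cell viability assay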
Description: SANGER: Inhibition of human HD-MY-Z cell growth in a cell viability assay.

[9] = tested on: HDLM-2; type: functional, cell-based; details: Homo sapiens;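 also: cell viability assay measuring suppression of HDLM-2 proliferation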
Description: SANGER: Inhibition of human HDLM-2 cell growth in a cell viability assay.

[10] = tested on: HEL; type: functional, cell-based, Homo sapiens; details: Homo sapiens, HEL;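 also: growth inhibition of HEL cells, read out with a cell viability assay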
Description: SANGER: Inhibition of human HEL cell growth in a cell viability assay.

[11] = tested on: HSC-2; type: functional, cell-based, Homo sapiens; details: Homo sapiens, HSC-2;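 also: growth inhibition of human HSC-2 cells, read out by a cell viability assay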
Description: SANGER: Inhibition of human HSC-2 cell growth in a cell viability assay.

[12] = tested on: HT-1080; type: functional, cell-based, Homo sapiens; details: Homo sapiens, HT-1080
Description: SANGER: Inhibition of human HT-1080 cell growth in a cell viability assay.

[13] = tested on: IA-LM; type: functional, cell-based, Homo sapiens; details: Homo sapiens, IA-LM;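 also: cell viability assay measuring growth inhibition of human IA-LM cells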
Description: SANGER: Inhibition of human IA-LM cell growth in a cell viability assay.

[14] = tested on: K5; type: functional, cell-based, Homo sapiens; details: Homo sapiens, K5
[15] = tested on: LS-1034; type: functional, cell-based, Homo sapiens; details: Homo sapiens, LS-1034
Description: SANGER: Inhibition of human LS-1034 cell growth in a cell viability assay.

[16] = tested on: MDA-MB-175-VII; type: functional, cell-based, Homo sapiens; details: Homo sapiens, MDA-MB-175-VII
[17] = tested on: MOLT-16; type: functional, cell-based; details: Homo sapiens;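 also: growth inhibition of human MOLT-16 cells, read out with a cell viability assay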
Description: SANGER: Inhibition of human MOLT-16 cell growth in a cell viability assay.

[18] = tested on: MOLT-4; type: functional, cell-based; details: Homo sapiens;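 also: growth inhibition of MOLT-4 cells, determined with a cell viability readout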
Description: SANGER: Inhibition of human MOLT-4 cell growth in a cell viability assay.

[19] = tested on: Mo; type: functional, cell-based; details: Homo sapiens
Description: SANGER: Inhibition of human Mo-T cell growth in a cell viability assay.

[20] = tested on: NCI-H1155; type: functional, cell-based; details: Homo sapiens;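 also: cell growth inhibition measured by a viability assay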
Description: SANGER: Inhibition of human NCI-H1155 cell growth in a cell viability assay.

[21] = tested on: NCI-H1563; type: functional, cell-based, Homo sapiens; details: Homo sapiens, NCI-H1563;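 also: growth inhibition of human NCI-H1563 cells, read out with a cell viability assay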
Description: SANGER: Inhibition of human NCI-H1563 cell growth in a cell viability assay.

[22] = tested on: NCI-H1755; type: functional, cell-based, Homo sapiens; details: Homo sapiens, NCI-H1755;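 also: cell viability readout used to measure growth inhibition of NCI-H1755 cells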
Description: SANGER: Inhibition of human NCI-H1755 cell growth in a cell viability assay.

[23] = tested on: NCI-H28; type: functional, cell-based, Homo sapiens; details: Homo sapiens, NCI-H28;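 also: growth inhibition of human NCI-H28 cells, read out as cell viability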
Description: SANGER: Inhibition of human NCI-H28 cell growth in a cell viability assay.

[24] = tested on: NCI-H720; type: functional, cell-based; details: Homo sapiens;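 also: growth inhibition of human NCI-H720 cells determined by a cell viability assay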
Description: SANGER: Inhibition of human NCI-H720 cell growth in a cell viability assay.

[25] = tested on: OVCAR-5; type: functional, cell-based, Homo sapiens; details: Homo sapiens, OVCAR-5;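 also: growth inhibition of human OVCAR-5 cells, read out with a cell viability assay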
Description: SANGER: Inhibition of human OVCAR-5 cell growth in a cell viability assay.

[26] = tested on: PA-1; type: functional, cell-based, Homo sapiens; details: Homo sapiens, PA-1;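 also: IC50 for suppression of PA-1 cell proliferation, determined with a cell viability read-out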
Description: SANGER: Inhibition of human PA-1 cell growth in a cell viability assay.

[27] = tested on: PC-3; type: functional, cell-based, Homo sapiens; details: Homo sapiens, PC-3;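 also: cell viability assay measuring growth inhibition of PC-3 cells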
Description: SANGER: Inhibition of human PC-3 cell growth in a cell viability assay.

[28] = tested on: RERF-LC-MS; type: functional, cell-based, Homo sapiens; details: Homo sapiens, RERF-LC-MS;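 also: growth inhibition of human RERF-LC-MS cells, read out by a cell viability assay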
Description: SANGER: Inhibition of human RERF-LC-MS cell growth in a cell viability assay.

[29] = tested on: RPMI-2650; type: functional, cell-based, Homo sapiens; details: Homo sapiens, RPMI-2650
Description: SANGER: Inhibition of human RPMI-2650 cell growth in a cell viability assay.

[30] = tested on: RPMI-7951; type: functional, cell-based, Homo sapiens; details: Homo sapiens, RPMI-7951
Description: SANGER: Inhibition of human RPMI-7951 cell growth in a cell viability assay.

[31] = tested on: RPMI-8226; type: functional, cell-based; details: Homo sapiens
Description: SANGER: Inhibition of human RPMI-8226 cell growth in a cell viability assay.

[32] = tested on: RVH-421; type: functional, cell-based, Homo sapiens; details: Homo sapiens, RVH-421
Description: SANGER: Inhibition of human RVH-421 cell growth in a cell viability assay.

[33] = tested on: SBC-5; type: functional, cell-based, Homo sapiens; details: Homo sapiens, SBC-5;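 also: cell viability assay read-out, IC50 is the concentration that inhibits growth of the cells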
Description: SANGER: Inhibition of human SBC-5 cell growth in a cell viability assay.

[34] = tested on: SCC-4; type: functional, cell-based, Homo sapiens; details: Homo sapiens, SCC-4;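 also: growth inhibition of human SCC-4 cells, read out as cell viability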
Description: SANGER: Inhibition of human SCC-4 cell growth in a cell viability assay.

[35] = tested on: SCC-9; type: functional, cell-based, Homo sapiens; details: Homo sapiens, SCC-9;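 also: Read-out is a cell viability assay, with values giving inhibition of cell growth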
Description: SANGER: Inhibition of human SCC-9 cell growth in a cell viability assay.

[36] = tested on: SF-126; type: functional, cell-based, Homo sapiens; details: Homo sapiens, SF-126;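 also: growth inhibition of human SF126 cells, read out with a cell viability assay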
Description: SANGER: Inhibition of human SF126 cell growth in a cell viability assay.

[37] = tested on: SK-LMS-1; type: functional, cell-based, Homo sapiens; details: Homo sapiens, SK-LMS-1;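 also: growth inhibition of human SK-LMS-1 cells, read out with a cell viability assay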
Description: SANGER: Inhibition of human SK-LMS-1 cell growth in a cell viability assay.

[38] = tested on: SK-MEL-1; type: functional, cell-based; details: Homo sapiens;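 also: growth inhibition of human SK-MEL-1 cells, read out by a cell viability assay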
Description: SANGER: Inhibition of human SK-MEL-1 cell growth in a cell viability assay.

[39] = tested on: SNU-449; type: functional, cell-based, Homo sapiens; details: Homo sapiens, SNU-449
Description: SANGER: Inhibition of human SNU-449 cell growth in a cell viability assay.

[40] = tested on: SW 962; type: functional, cell-based, Homo sapiens; details: Homo sapiens, SW 962;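 also: growth inhibition of human SW962 cells, read out by a cell viability assay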
Description: SANGER: Inhibition of human SW962 cell growth in a cell viability assay.

[41] = tested on: A204; type: functional, cell-based, Homo sapiens; details: Homo sapiens, A204;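 also: growth inhibition of human A204 cells, read out with a cell viability assay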
Description: SANGER: Inhibition of human A204 cell growth in a cell viability assay.

[42] = tested on: A-427; type: functional, cell-based, Homo sapiens; details: Homo sapiens, A-427;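 also: growth inhibition of human A-427 cells, read out by a cell viability assay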
Description: SANGER: Inhibition of human A427 cell growth in a cell viability assay.

[43] = tested on: ABC-1; type: functional, cell-based, Homo sapiens; details: Homo sapiens, ABC-1;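 also: growth inhibition of human ABC-1 cells, read out by a cell viability assay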
Description: SANGER: Inhibition of human ABC-1 cell growth in a cell viability assay.

[44] = tested on: BB65-RCC; type: functional, cell-based, Homo sapiens; details: Homo sapiens, BB65-RCC;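 also: growth inhibition of the cell line, measured with a cell viability assay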
Description: SANGER: Inhibition of human BB65-RCC cell growth in a cell viability assay.

[45] = tested on: BEN; type: functional, cell-based, Homo sapiens; details: Homo sapiens, BEN;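 also: growth inhibition of the BEN cell line, read out with a cell viability assay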
Description: SANGER: Inhibition of human BEN cell growth in a cell viability assay.

[46] = tested on: Becker; type: functional, cell-based, Homo sapiens; details: Homo sapiens, Becker;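 also: growth inhibition of Becker cells, read out with a cell viability assay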
Description: SANGER: Inhibition of human Becker cell growth in a cell viability assay.

[47] = tested on: C8166; type: functional, cell-based; details: Homo sapiens;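 also: growth inhibition of human C8166 cells measured by a cell viability assay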
Description: SANGER: Inhibition of human C8166 cell growth in a cell viability assay.

[48] = tested on: TE-5; type: functional, cell-based, Homo sapiens; details: Homo sapiens, TE-5;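 also: inhibition of cell growth, read out by a cell viability assay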
Description: SANGER: Inhibition of human TE-5 cell growth in a cell viability assay.

[49] = tested on: UO-31; type: functional, cell-based; details: Homo sapiens;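 also: cell viability assay measuring inhibition of cell growth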
Description: SANGER: Inhibition of human U031 cell growth in a cell viability assay.

[50] = tested on: U-251; type: functional, cell-based, Homo sapiens; details: Homo sapiens, U-251;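 also: growth inhibition of human U-251 cells, read out through a cell viability assay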
Description: SANGER: Inhibition of human U251 cell growth in a cell viability assay.

[51] = tested on: CHL-1; type: functional, cell-based, Homo sapiens; details: Homo sapiens, CHL-1;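 also: cell growth inhibition, read out with a cell viability assay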
Description: SANGER: Inhibition of human CHL-1 cell growth in a cell viability assay.

[52] = tested on: COLO-684; type: functional, cell-based; details: Homo sapiens
Description: SANGER: Inhibition of human COLO-684 cell growth in a cell viability assay.

## CN(C)C/C=C/C(=O)Nc1cc2c(Nc3ccc(F)c(Cl)c3)ncnc2cc1O[C@H]1CCOC1 [AFATINIB]
[1]
  IC50: > 500 nM
[2]
  IC50: 448 nM
[3]
  IC50: > 500 nM
[4]
  IC50: > 500 nM
[5]
  IC50: > 500 nM
[6]
  IC50: 9.87 nM
[7]
  IC50: > 500 nM
[8]
  IC50: > 500 nM
[9]
  IC50: 5.72 nM
[10]
  IC50: > 500 nM
[11]
  IC50: 168 nM
[12]
  IC50: > 500 nM
[13]
  IC50: > 500 nM
[14]
  IC50: > 500 nM
[15]
  IC50: > 500 nM
[16]
  IC50: 34.2 nM
[17]
  IC50: > 500 nM
[18]
  IC50: > 500 nM
[19]
  IC50: > 500 nM
[20]
  IC50: > 500 nM
[21]
  IC50: > 500 nM
[22]
  IC50: > 500 nM
[23]
  IC50: > 500 nM
[24]
  IC50: 53.2 nM
[25]
  IC50: > 500 nM
[26]
  IC50: > 500 nM
[27]
  IC50: > 500 nM
[28]
  IC50: > 500 nM
[29]
  IC50: > 500 nM
[30]
  IC50: > 500 nM
[31]
  IC50: > 500 nM
[32]
  IC50: > 500 nM
[33]
  IC50: > 500 nM
[34]
  IC50: > 500 nM
[35]
  IC50: > 500 nM
[36]
  IC50: > 500 nM
[37]
  IC50: > 500 nM
[38]
  IC50: > 500 nM
[39]
  IC50: > 500 nM
[40]
  IC50: > 500 nM
[41]
  IC50: > 500 nM
[42]
  IC50: > 500 nM
[43]
  IC50: > 500 nM
[44]
  IC50: 346 nM
[45]
  IC50: > 500 nM
[46]
  IC50: > 500 nM
[47]
  IC50: > 500 nM
[48]
  IC50: > 500 nM
[49]
  IC50: > 500 nM
[50]
  IC50: > 500 nM
[51]
  IC50: 18.4 nM
[52]
  IC50: > 500 nM

## Cc1cnc(-c2cnc(NCCNc3ccc(C#N)cn3)nc2-c2ccc(Cl)cc2Cl)[nH]1 [LADUVIGLUSIB]
[1]
  IC50: > 2560 nM
[2]
  IC50: > 2560 nM
[3]
  IC50: > 2560 nM
[4]
  IC50: > 2560 nM
[5]
  IC50: 1780 nM
[6]
  IC50: > 2560 nM
[7]
  IC50: > 2560 nM
[8]
  IC50: > 2560 nM
[9]
  IC50: > 2560 nM
[10]
  IC50: > 2560 nM
[11]
  IC50: > 2560 nM
[12]
  IC50: > 2560 nM
[13]
  IC50: > 2560 nM
[14]
  IC50: > 2560 nM
[15]
  IC50: > 2560 nM
[16]
  IC50: > 2560 nM
[17]
  IC50: > 2560 nM
[18]
  IC50: > 2560 nM
[19]
  IC50: > 2560 nM
[20]
  IC50: > 2560 nM
[21]
  IC50: > 2560 nM
[22]
  IC50: > 2560 nM
[23]
  IC50: > 2560 nM
[24]
  IC50: > 2560 nM
[25]
  IC50: > 2560 nM
[26]
  IC50: > 2560 nM
[27]
  IC50: > 2560 nM
[28]
  IC50: > 2560 nM
[29]
  IC50: > 2560 nM
[30]
  IC50: > 2560 nM
[31]
  IC50: > 2560 nM
[32]
  IC50: > 2560 nM
[33]
  IC50: > 2560 nM
[34]
  IC50: > 2560 nM
[35]
  IC50: > 2560 nM
[36]
  IC50: > 2560 nM
[37]
  IC50: > 2560 nM
[38]
  IC50: > 2560 nM
[39]
  IC50: > 2560 nM
[40]
  IC50: > 2560 nM
[41]
  IC50: > 2560 nM
[42]
  IC50: > 2560 nM
[43]
  IC50: > 2560 nM
[44]
  IC50: > 2560 nM
[45]
  IC50: > 2560 nM
[46]
  IC50: > 2560 nM
[47]
  IC50: > 2560 nM
[48]
  IC50: > 2560 nM
[49]
  IC50: > 2560 nM
[50]
  IC50: > 2560 nM
[51]
  IC50: > 2560 nM
[52]
  IC50: > 2560 nM

## CCOc1nc(NC(=O)Cc2cc(OC)ccc2OC)cc(N)c1C#N
[1]
  IC50: > 10000 nM
[2]
  IC50: > 10000 nM
[3]
  IC50: > 10000 nM
[4]
  IC50: > 10000 nM
[5]
  IC50: > 10000 nM
[6]
  IC50: > 10000 nM
[7]
  IC50: > 10000 nM
[8]
  IC50: > 10000 nM
[9]
  IC50: > 10000 nM
[10]
  IC50: > 10000 nM
[11]
  IC50: > 10000 nM
[12]
  IC50: > 10000 nM
[13]
  IC50: > 10000 nM
[14]
  IC50: > 10000 nM
[15]
  IC50: > 10000 nM
[16]
  IC50: > 10000 nM
[17]
  IC50: > 10000 nM
[18]
  IC50: > 10000 nM
[19]
  IC50: > 10000 nM
[20]
  IC50: > 10000 nM
[21]
  IC50: > 10000 nM
[22]
  IC50: > 10000 nM
[23]
  IC50: > 10000 nM
[24]
  IC50: > 10000 nM
[25]
  IC50: > 10000 nM
[26]
  IC50: > 10000 nM
[27]
  IC50: > 10000 nM
[28]
  IC50: > 10000 nM
[29]
  IC50: > 10000 nM
[30]
  IC50: > 10000 nM
[31]
  IC50: > 10000 nM
[32]
  IC50: > 10000 nM
[33]
  IC50: > 10000 nM
[34]
  IC50: > 10000 nM
[35]
  IC50: > 10000 nM
[36]
  IC50: > 10000 nM
[37]
  IC50: > 10000 nM
[38]
  IC50: > 10000 nM
[39]
  IC50: > 10000 nM
[40]
  IC50: > 10000 nM
[41]
  IC50: > 10000 nM
[42]
  IC50: > 10000 nM
[43]
  IC50: > 10000 nM
[44]
  IC50: > 10000 nM
[45]
  IC50: > 10000 nM
[46]
  IC50: > 10000 nM
[47]
  IC50: > 10000 nM
[48]
  IC50: > 10000 nM
[49]
  IC50: > 10000 nM
[50]
  IC50: > 10000 nM
[51]
  IC50: > 10000 nM
[52]
  IC50: > 10000 nM
